Experimental data: US5874442A, “Tricyclic amides useful for inhibition of G-protein function and for treatment of proliferative disease” (Schering-Plough Corporation, priority 1996, dated 1999)
Like-named read-outs stand apart in the source and are kept apart here. One block for each compound: values may come before it.

Assays:
K ras NIH 3T3 = assay: Soft agar assay; type: cell-based; conditions: Mus musculus, NIH3T3, read-out: IC50, inhibition of human tumor cell growth, soft agar
[1] = tested on: DLD-1 (human colon carcinoma cells); assay: In vivo anti-tumor studies, subcutaneous DLD-1 tumors in athymic nu/nu mice; set-up: species or system athymic nu/nu female mice; conditions: Mus musculus, DLD-1, po, […], QID, 7 days per week for 4 weeks, read-out: Average % Tumor Inhibition; for inhibition in vivo at 50 mg/kg: 50 mg/kg p.o.; for inhibition in vivo at 10 mg/kg: 10 mg/kg p.o.
Procedure: Tumor bearing animals are selected and randomized when the tumors are established. Animals are treated with vehicle (β-cyclodextrin for i.p. or corn oil for p.o.) only or with a compound of the present invention in vehicle four times a day (QID) for 7 days per week for 4 weeks. The percent inhibition of tumor growth relative to vehicle controls is determined by tumor measurements.

A549 = assay: Soft agar assay; type: cell-based; conditions: Homo sapiens; A549 (lung) K ras mutation; read-out: IC50, inhibition of human tumor cell growth, soft agar
Procedure: (§1) Anchorage-independent growth is a characteristic of tumorigenic cell lines. Human tumor cells are suspended in growth medium containing 0.3% agarose and an indicated concentration of a farnesyl transferase inhibitor. The solution is overlayed onto growth medium solidified with 0.6% agarose containing the same concentration of farnesyl transferase inhibitor as the top layer. […] After incubation, the colonies are stained by overlaying the agar with a solution of MTT (3-[4,5-dimethylthiazol-2-yl]-2,5-diphenyltetrazolium bromide, Thiazolyl blue) (1 mg/mL in PBS). Colonies are counted and the IC50's determined.

HTB 177 = assay: Soft agar assay; type: cell-based; conditions: Homo sapiens; HTB 177 (NSCLC) K ras mutation; read-out: IC50, inhibition of human tumor cell growth, soft agar
Procedure: as §1

HTB 175 = assay: Soft agar assay; type: cell-based; conditions: Homo sapiens; HTB 175 (SCLC) ras mut. not detected; read-out: IC50, inhibition of human tumor cell growth, soft agar
Procedure: as §1

H ras NIH 3T3 = assay: Soft agar assay; type: cell-based; conditions: Mus musculus, NIH3T3, read-out: IC50, inhibition of human tumor cell growth, soft agar
[2] = tested on: T24-BAG4 human bladder carcinoma cells expressing an activated H-ras gene; assay: Cell mat assay, T24-BAG4 tumor cells; type: cell-based; conditions: Homo sapiens, 336 h, read-out: Tumor (T-24) IC50
Procedure: (§2) Compound-induced colony inhibition was assayed by addition of serial dilutions of compound directly to the growth medium 24 h after tumor cell planting, and incubating cells for an additional 14 d to allow colony formation. Assays were terminated by rinsing monolayers twice with phosphate-buffered saline (PBS), fixing the monolayers with a 1% glutaraldehyde solution in PBS, then visualizing tumor cells by staining with X-Gal (Price, J., et al., Lineage analysis in the vertebrate nervous system by retrovirus-mediated gene transfer, Proc. Natl. Acad. Sci.84, 156-160(1987)). […] Both IC50 values were obtained by determining the density of tumor cells and mat cells by visual inspection and enumeration of cells per colony and the number of colonies under the microscope.

[3] = tested on: DLD-1-BAG human colon carcinoma cells; assay: Cell mat assay, DLD-1-BAG tumor cells; type: cell-based; conditions: Homo sapiens, DLD-1, 336 h, read-out: Tumor (DLD-1) IC50
Procedure: as §2
(§3) Additional assays were carried out by following essentially the same procedure as described above, but with substitution of alternative indicator tumor cell lines in place of the T24-BAG cells. The assays were conducted using either DLD-1-BAG human colon carcinoma cells expressing as activated K-ras gene or SW620-BAG human colon carcinoma cells expressing an activated K-ras gene.

[4] = target: T1, farnesyl protein transferase (FPT) (Rattus norvegicus, UniProt Q02293+Q04631); assay: In vitro enzyme assay: inhibition of farnesyl protein transferase (FPT), [3H]farnesyl transfer to Ras-CVLS; type: biochemical
T1 construct: were partially purified from rat brain by ammonium sulfate fractionation; from tissue; host or cells: rat brain (ammonium sulfate fractionation, Q-Sepharose)
Procedure: (§4) 1. In vitro enzyme assays:
(§5) Inhibition of farnesyl protein transferase and geranylgeranyl protein transferase.
Human farnesyl protein transferase was also expressed in E. coli, using cDNA clones encoding both the a and b subunits. […] Human farnesyl protein transferase was partially-purified from the soluble protein fraction of E. coli as described above. […] Two forms of val^12 -Ha-Ras protein were prepared as substrates for these enzymes, differing in their carboxy terminal sequence. One form terminated in cysteine-valine-leucine-serine (Ras-CVLS) the other in cystein-valine-leucine-leucine (Ras-CVLL). Ras-CVLS is a substrate for the farnesyl protein transferase while Ras-CVLL is a substrate for geranylgeranyl protein transferase I. The cDNAs encoding these proteins were constructed so that the proteins contain an amino-terminal extension of 6 histidine residues. Both proteins were expressed in Escherichia coli and purified using metal chelate affinity chromatography. The radiolabelled isoprenyl pyrophosphate substrates, [^3 H]farnesyl pyrophosphate and [^3 H] geranylgeranyl pyrophosphate, were purchased from DuPont/New England Nuclear.
The reaction was allowed to proceed for 30 minutes at room temperature and then stopped with 0.5 ml of 4% sodium dodecyl sulfate (SDS) followed by 0.5 ml of cold 30% TCA. Samples were allowed to sit on ice for 45 minutes and precipitated Ras protein was then collected on GF/C filter paper mats using a Brandel cell harvester. […] Percent inhibition was calculated relative to the DMSO vehicle control.

[5] = tested on: Ras-CVLS processing in COS cells; assay: Cell-based COS cell assay: inhibition of Ras processing (Ras-CVLS); set-up: species or system monkey; conditions: Primates, COS
Source text: (§6) Transient expression of val^12 -Ha-Ras-CVLS and […] -Ha-Ras-CVLL in COS monkey kidney cells: Effect of farnesyl protein transferase inhibitors on Ras processing and on disordered cell growth induced by transforming Ras.
(§7) COS monkey kidney cells were transfected by electroporation with the plasmid pSV-SPORT (Gibco/BRL) containing a cDNA insert encoding either Ras-CVLS or Ras-CVLL, leading to transient overexpression of a Ras substrate for either farnesyl protein transferase or geranylgeranyl protein transferase I, respectively (see above).
Following electroporation, cells were plated into 6-well tissue culture dishes containing 1.5 ml of Dulbecco's-modified Eagle's media (GIBCO, Inc.) supplemented with 10% fetal calf serum and the appropriate farnesyl protein transferase inhibitors. After 24 hours, media was removed and fresh media containing the appropriate drugs was re-added.
48 hours after electroporation cells were examined under the microscope to monitor disordered cell growth induced by transforming Ras. Cells expressing transforming Ras become more rounded and refractile and overgrow the monolayer, reminiscent of the transformed phenotype. Cells were then photographed, washed twice with 1 ml of cold phosphate-buffered saline (PBS) and removed from the dish by scraping with a rubber policeman into 1 ml of a buffer containing 25 mM Tris, pH 8.0; 1 mM ethylenediamine tetraacetic acid; 1 mM phenylmethylsulfonyl fluoride; […]; and 0.1 mM pepstatin. Cells were lysed by homogenization and cell debris was removed by centrifugation at 2000× g for 10 min.
Cellular protein was precipitated by addition of ice-cold trichloroacetic acid and redissolved in […] of SDS-electrophoresis sample buffer. […] Proteins resolved on the gels were electroblotted onto nitrocellulose membranes for immunodetection.
After washing, membranes were incubated for one hour at room temperature with a 1:5000 dilution of secondary antibody, rabbit anti-rat lgG conjugated to horseradish peroxidase, in PBS containing 1% fetal calf serum. The presence of processed and unprocessed Ras-CVLS or Ras-CVLL was detected using a colorimetric peroxidase reagent (4-chloro-1-naphthol) as described by the manufacturer (Bio-Rad).

[6] = target: T2, geranylgeranyl protein transferase (GGPT) I (Rattus norvegicus, UniProt P53610+Q04631); assay: In vitro enzyme assay: inhibition of geranylgeranyl protein transferase I (GGPT), Ras-CVLL as acceptor; type: biochemical
T2 construct: were partially purified from rat brain by ammonium sulfate fractionation; from tissue; host or cells: rat brain (ammonium sulfate fractionation, Q-Sepharose)
Source text: as §4, §5
Both farnesyl protein transferase (FPT) and geranylgeranyl protein transferase (GGPT) I were partially purified from rat brain by ammonium sulfate fractionation followed by Q-Sepharose (Pharmacia, Inc.) anion exchange chromatography essentially as described by Yokoyama et al (Yokoyama, K., et al., (1991), A protein geranylgeranyltransferase from bovine brain: Implications for protein prenylation specificity, Proc. Natl. Acad. Sci USA 88: 5302-5306, the disclosure of which is incorporated herein by reference thereto). Human farnesyl protein transferase was also expressed in E. coli, using cDNA clones encoding both the a and b subunits. The methods used were similar to those published (Omer, C. et al., (1993), Characterization of recombinant human farnesyl protein transferase: Cloning, expression, farnesyl diphosphate binding, and functional homology with yeast prenyl-protein transferases, Biochemistry 32:5167-5176). Human farnesyl protein transferase was partially-purified from the soluble protein fraction of E. coli as described above. The tricyclic farnesyl protein transferase inhibitors disclosed herein inhibited both human and rat enzyme with similar potencies. […]

[7] = tested on: SW620-BAG human colon carcinoma cells expressing an activated K-ras gene; assay: Cell mat assay, SW620-BAG tumor cells; type: cell-based; conditions: Homo sapiens, SW-620, 336 h, read-out: Tumor (SW620) IC50, Mat assay, 14 d
Procedure: as §2, §3

[8] = tested on: Normal human HEPM fibroblasts; assay: Cell mat assay, normal cells (cell mat); type: cell-based; conditions: Homo sapiens, Fibroblast, 336 h, read-out: Normal IC50
Procedure: as §2

[9] = tested on: geranylgeranylation of Ras-CVLL in COS cells; assay: Cell-based COS cell assay: geranylgeranylation of Ras-CVLL; set-up: species or system monkey; conditions: at concentrations up to 33 μM
Source text: as §6
as §7, with “above). […]” for “above).”
Membranes were blocked by incubation overnight at 4° C. in PBS containing 2.5% dried milk and 0.5% Tween-20 and then incubated with a Ras-specific monoclonal antibody, Y13-259 (Furth, M. E., et al., (1982), Monoclonal antibodies to the p21 products of the transforming gene of Harvey murine sarcome virus and of the cellular ras gene family, J. Virol. 43:294-304), in PBS containing 1% fetal calf serum for one hour at room temperature. […] The presence of processed and unprocessed Ras-CVLS or Ras-CVLL was detected using a colorimetric peroxidase reagent (4-chloro-1-naphthol) as described by the manufacturer (Bio-Rad).

T2 sequence (P53610 whole entry, one chain of several): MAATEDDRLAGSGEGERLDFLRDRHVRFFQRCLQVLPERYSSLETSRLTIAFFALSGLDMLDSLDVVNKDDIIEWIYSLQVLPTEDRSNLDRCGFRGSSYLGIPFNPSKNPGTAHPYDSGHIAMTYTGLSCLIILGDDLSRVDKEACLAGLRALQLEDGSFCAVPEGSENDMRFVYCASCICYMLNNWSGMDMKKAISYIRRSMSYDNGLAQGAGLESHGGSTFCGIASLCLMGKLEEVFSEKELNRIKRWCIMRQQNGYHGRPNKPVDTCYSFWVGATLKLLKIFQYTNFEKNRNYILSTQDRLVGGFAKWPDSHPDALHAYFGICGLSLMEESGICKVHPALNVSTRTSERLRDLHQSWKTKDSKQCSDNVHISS

IC50 (A549): 300 nM
Compound: NC(=O)N1CCC(CC(=O)N2CCC(C3c4ncc(Br)cc4CCc4cc(Cl)cc(Cl)c43)CC2)CC1 (single isomer, unassigned) [Example 18]
IC50 (K ras NIH 3T3): 800 nM
inhibition in vivo at 50 mg/kg ([1]; Experiment No. 1): 73%
inhibition in vivo at 10 mg/kg ([1]; Experiment No. 2): 43%
IC50 (HTB 177): 200 nM
IC50 (HTB 175): 600 nM
IC50 (H ras NIH 3T3): 175 nM

Compound: O=C(Cc1cc[n+]([O-])cc1)N1CCN(C2c3ccc(Cl)c(Br)c3CCc3cc(Br)cnc32)CC1 (racemic) [Example 5B]
IC50 [2]: < 1600 nM
IC50 [3]: 3100 nM
IC50 [4]: ~3 nM
IC50 ([5]; read-out: Inhibition of Ras Processing IC50, Table 3, COS cells): 50 nM
IC50 [6]: > 300000 nM
IC50 [7]: 10000 nM
IC50 [8]: > 25000 nM

Compound: O=C(Cc1cc[n+]([O-])cc1)N1CCC(=C2c3ccc(Cl)c(Br)c3CCc3cc(Br)cnc32)CC1 [Example 2]
inhibition in vivo at 50 mg/kg ([1]; Experiment No. 1): 47%
inhibition in vivo at 10 mg/kg ([1]; Experiment No. 2): 25%
inhibition in vivo at 50 mg/kg ([1]; Experiment No. 3): 52.7%
inhibition in vivo at 10 mg/kg ([1]; Experiment No. 4): 31.9%
IC50 ([5]; Table 3, COS cells, read-out: Inhibition of Ras Processing IC50): 250 nM
block of geranylgeranylation of Ras-CVLL [9]: did not block the geranylgeranylation of Ras-CVLL

Compound: O=C(Cc1cc[n+]([O-])cc1)N1CCN(C2c3ncc(Br)cc3CCc3cccc(Cl)c32)CC1 (single isomer, unassigned) [Example 20]
IC50 [4]: 6.2 nM
IC50 [6]: > 38000 nM
